In patent publication US20230226136A1, “A SYNERGISTIC FORMULATION FOR MANAGEMENT OF RESPIRATORY PATHOGENS INCLUDING CORONAVIRUSES” (priority 2020, published 2023):

Key:
[1] = Effective concentrations of components of the formulation (tested in 200 uL of the formulation); conditions: for Actual concentrations that were effective in 200 uL, 1:20 dilution: concentration of the component within the formulation at 1:20 dilution
Procedure: Table 1 depicts the concentration of the biological, non-toxic peptide molecules included in the formulation of the present invention. The synergistic formulation of the present invention is prepared in various combinations of the constituents including protease inhibitor, 9 Arg, ion chelator, FDHIVY, Poly-Lys (L8), Anti-HAT, and vitamin B12. Each combination may include some of the above mentioned constituents depending on the use of the formulation. These concentrations of the components of the synergistic formulations of the present invention have been tested to be effective in 200 μL of the formulation.

[2] = system: SARS-CoV-2; experiment: IC-50 plaque assay against SARS-CoV-2; type: cell-based; conditions: highest concentration tested 25 μM, FIG. 3
Procedure: The IC-50 value of Remdesivir was calculated by considering the top and baseline value 100 and 0 respectively.
The IC-50 of the test material was calculated by considering the top and baseline value 100 and 0 respectively.

| Compound | Actual concentrations that were effective in 200 uL, 1:20 dilution [1] | Actual concentrations that were effective in 200 uL, 1:30 dilution ([1]; concentration of the component within the formulation at 1:30 dilution) [mM] | reduction in viral load [2] |
| --- | --- | --- | --- |
| Phenylalanine-Aspartic acid-Histidine-Isoleucine-Valine-Tyrosine [FDHIVY] | 0.25 µg/mL | – | – |
| 9-L-Arginine-peptide [9 Arg] | 2 mM | 1.3 | – |
| CCC(CC)COC(=O)[C@H](C)N[P@](=O)(OC[C@H]1O[C@@](C#N)(c2ccc3c(N)ncnn23)[C@H](O)[C@@H]1O)Oc1ccccc1 [Remdesivir] | – | – | up to 86.84% |
